These compounds were tested against hROMK (human Kir1.1) (Homo sapiens (Human), UniProt P48048) (assay: Thallium Flux Assay (FluxOR, CHO T-Rex hROMK stable cell line)). Settings: CHO T-Rex hROMK cells, 10-point concentration response curve; read-out: Human ROMK TH Flux IC50.
Assay type: cell-based
Method: Solutions and reagents: Thallium flux assay was performed using FluxOR kit (F10017, Life Technologies). Loading buffer, assay buffer and stimulus buffer were prepared using kit components.
To prepare 10 ml of loading buffer: 10 μl of FluxOR dye (reconstituted in DMSO) was first added to 100 μl of powerload concentrate and this mix along with 100 μl of Probenicid (100×) was then added to 9.79 ml of HBSS. […] Stimulus buffer was composed of 15 mM Tl2SO4, 0.75 mM K2SO4 in FluxOR chloride free buffer (diluted to 1× using deionized water). The final concentration of Tl2SO4 and K2SO4 in the assay plate was 3 mM and 0.15 mM, respectively.
Plating and induction of cells: The CHO T-Rex hROMK (human Kir1.1) stable cell line was maintained in Ham's F12 media supplemented with 10% FBS, 1% Penicillin-Streptomycin, 500 μg/ml Zeocin and 10 μg/ml Blasticidin at 37° C. in a 5% CO2 incubator. […] The cell suspension was centrifuged at 1200 rpm for 5 min. After discarding the supernatant, the cells were resuspended in fresh growth media and cell concentration was determined using a hemocytometer. […] The assay plate was kept at 37° C. in a 5% CO2 incubator.
Assay protocol: On the day of experiment, media was removed and loading buffer was added (30 μl/well) to the assay plate. The cells were incubated in the loading buffer for 30 minutes at 37° C. The loading buffer was then replaced by assay buffer (30 μl/well) followed by addition of test compounds or controls. […] Each well was read for 90 sec at 2 sec interval and the stimulus buffer was added after 20 seconds of baseline recording. The final DMSO concentration was either 0.5 or 1% in the assay plate. Positive and negative controls were defined by addition of DMSO or 3 μM of a standard ROMK inhibitor, respectively, to the wells instead of a test compound.
A 10-point concentration response curve was used to estimate the IC50 value of test compounds.

hROMK (human Kir1.1), sequence (P48048 whole entry): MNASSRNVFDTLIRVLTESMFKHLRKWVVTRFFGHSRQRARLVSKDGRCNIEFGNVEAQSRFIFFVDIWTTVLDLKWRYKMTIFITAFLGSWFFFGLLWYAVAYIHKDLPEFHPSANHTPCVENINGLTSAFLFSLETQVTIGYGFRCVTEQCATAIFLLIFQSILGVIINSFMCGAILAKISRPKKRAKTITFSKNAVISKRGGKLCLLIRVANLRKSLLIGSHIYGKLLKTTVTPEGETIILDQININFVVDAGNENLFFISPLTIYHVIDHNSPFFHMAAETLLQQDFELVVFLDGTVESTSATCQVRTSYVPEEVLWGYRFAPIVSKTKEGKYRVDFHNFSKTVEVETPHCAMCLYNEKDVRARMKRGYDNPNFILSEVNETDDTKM

Row | SMILES | IC50 [nM]
1 | Cc1c(C(O)CN(C)Cc2ccc(-c3ccc4oc(=O)n(C)c4c3)nc2)ccc2c1COC2=O (single isomer, unassigned) [Example 1-II, 5-(5-(((2-hydroxy-2-(4-methyl-1-oxo-1,3-dihydroisobenzofuran-5-yl)ethyl)(methyl)amino)methyl)pyridin-2-yl)-3-methylbenzo[d]oxazol-2(3H)-one] | 830
2 | CN(Cc1ccc(-c2ccc3oc(=O)n(C)c3c2)nc1)CC(O)c1ccc2oc(=O)n(C)c2c1 (single isomer, unassigned) [Example 5-I] | 1500
3 | Cc1c(C(O)CNCc2ccc(-c3ccc(C#N)c(F)c3)cc2)ccc2c1COC2=O (single isomer, unassigned) [Example 10-II, 3-fluoro-4′-(((2-hydroxy-2-(4-methyl-1-oxo-1,3-dihydroisobenzofuran-5-yl)ethyl)amino)methyl)-[1,1′-biphenyl]-4-carbonitrile] | 140
4 | Cc1c(C(O)CN(C)Cc2ccc(-n3cc(C#N)c4ccccc43)cc2)ccc2c1COC2=O (single isomer, unassigned) [Example 12-II, 1-(4-(((2-hydroxy-2-(4-methyl-1-oxo-1,3-dihydroisobenzofuran-5-yl)ethyl)(methyl)amino)methyl)phenyl)-1H-indole-3-carbonitrile] | 520
5 | Cc1c(C(CO)N(C)Cc2cnc(-c3ccc4oc(=O)n(C)c4c3)nc2)ccc2c1COC2=O (single isomer, unassigned) [Example 14-I, 5-(5-(((2-hydroxy-1-(4-methyl-1-oxo-1,3-dihydroisobenzofuran-5-yl)ethyl)(methyl)amino)methyl)pyrimidin-2-yl)-3-methylbenzo[d]oxazol-2(3H)-one] | 4000
6 | Cc1c(C(CO)NCCc2cccc(-c3ccc(C#N)c(F)c3)c2)ccc2c1COC2=O (single isomer, unassigned) [Example 15-I, 3-fluoro-3′-(2-((2-hydroxy-1-(4-methyl-1-oxo-1,3-dihydroisobenzofuran-5-yl)ethyl)amino)ethy)-[1,1′-biphenyl]-4-carbonitrile] | 2000
7 | Cc1c(C(CO)NCCc2cccc(-c3ccc(C#N)c(F)c3)c2)ccc2c1COC2=O (single isomer, unassigned) [Example 15-II, 3-fluoro-3′-(2-((2-hydroxy-1-(4-methyl-1-oxo-1,3-dihydroisobenzofuran-5-yl)ethyl)amino)ethy)-[1,1′-biphenyl]-4-carbonitrile] | 1500
8 | Cc1c(C(O)CNCc2ccc3c(cnn3-c3ccc(F)cc3)c2)ccc2c1COC2=O (single isomer, unassigned) [Example 16-I, 5-(2-(((1-(4-fluorophenyl)-1H-indazol-5-yl)methyl)amino)-1-hydroxyethyl)-4-methylisobenzofuran-1(3H)-one] | 480
9 | Cc1c(C(O)CN(C)Cc2cnc(-n3ncc4ncccc43)nc2)ccc2c1COC2=O (single isomer, unassigned) [Example 17-I, 5-(2-(((2-(1H-pyrazolo[4,3-b]pyridin-1-yl)pyrimidin-5-yl)methyl)(mehyl)amino)-1-hydroxyethyl)-4-methylisobenzofuran-1(3H)-one] | 1500
10 | Cc1c(C(O)CN(C)Cc2cnc(-n3ncc4c(C#N)cccc43)nc2)ccc2c1COC2=O (single isomer, unassigned) [Example 18-I, 1-(5-(((2-hydroxy-2-(4-methyl-1-oxo-1,3-dihydroisobenzofuran-5-yl)ethyl)(methyl)amino)methyl)pyrimidin-2-yl)-1H-indazole-4-carbonitrile] | 230
11 | CN(Cc1ccc(-c2ccc(C#N)c(F)c2)nc1)CC(O)c1ccc2oc(=O)n(C)c2c1 (single isomer, unassigned) [Example 24-I, 2-fluoro-4-(5-(((2-hydroxy-2-(3-methyl-2-oxo-2,3-dihydrobenzo[d]oxazol-5-yl)ethyl)(methyl)amino)methyl)pyridin-2-yl)benzonitrile] | 2400
12 | CN(Cc1ccc(-c2ccc(C#N)c(F)c2)nc1)CC(O)c1ccc2oc(=O)n(C)c2c1 (single isomer, unassigned) [Example 24-II, 2-fluoro-4-(5-(((2-hydroxy-2-(3-methyl-2-oxo-2,3-dihydrobenzo[d]oxazol-5-yl)ethyl)(methyl)amino)methyl)pyridin-2-yl)benzonitrile] | 2400
13 | Cc1c(C(O)CN(C)Cc2ccc(-n3ccc4c(C#N)cccc43)nc2)ccc2c1COC2=O (single isomer, unassigned) [Example 25-I, 1-(5-(((2-hydroxy-2-(4-methyl-1-oxo-1,3-dihydroisobenzofuran-5-yl)ethyl)(methyl)amino)methyl)pyridin-2-yl)-1H-indole-4-carbonitrile] | 240
14 | Cc1c(C(O)CN(C)Cc2ccc(-n3ccc4c(C#N)cccc43)nc2)ccc2c1COC2=O (single isomer, unassigned) [Example 25-II, 1-(5-(((2-hydroxy-2-(4-methyl-1-oxo-1,3-dihydroisobenzofuran-5-yl)ethyl)(methyl)amino)methyl)pyridin-2-yl)-1H-indole-4-carbonitrile] | 520
15 | Cc1c(C(O)CN(C)Cc2ccc(-c3ccc(C#N)c(F)c3)cc2)ccc2c1COC2=O (single isomer, unassigned) [Example 27-II, 3-fluoro-4′-(((2-hydroxy-2-(4-methyl-1-oxo-1,3-dihydroisobenzofuran-5-yl)ethyl)(methyl)amino)methyl)-[1,1′-biphenyl]-4-carbonitrile] | 240
16 | Cc1c(C(O)CN(C)Cc2ccc(-n3ccc4c(C#N)cccc43)cc2)ccc2c1COC2=O (single isomer, unassigned) [Example 28-II, 1-(4-(((2-hydroxy-2-(4-methyl-1-oxo-1,3-dihydroisobenzofuran-5-yl)ethyl)(methyl)amino)methyl)phenyl)-1H-indole-4-carbonitrile] | 390
17 | Cc1c(C(O)CN(C)Cc2ccc(-n3ccc4cc(C#N)ccc43)cc2)ccc2c1COC2=O (single isomer, unassigned) [Example 30-II, 1-(4-(((2-hydroxy-2-(4-methyl-1-oxo-1,3-dihydroisobenzofuran-5-yl)ethyl)(methyl)amino)methyl)phenyl)-1H-indole-5-carbonitrile] | 1200
18 | Cc1cc(-c2ccc(CN(C)CC(O)c3ccc4c(c3C)COC4=O)cc2)ncc1C#N (single isomer, unassigned) [Example 31-II, 6-(4-(((2-hydroxy-2-(4-methyl-1-oxo-1,3-dihydroisobenzofuran-5-yl)ethyl)(methyl)amino)methyl)phenyl)-4-methylnicotinonitrile] | 370
19 | Cc1c(C(O)CN(C)Cc2ccc(-n3ccc4cc(C#N)ccc43)cc2)ccc2c1COC2=O (single isomer, unassigned) [Example 32-I, 1-(4-(((2-hydroxy-2-(4-methyl-1-oxo-1,3-dihydroisobenzofuran-5-yl)ethyl)(methyl)amino)methyl)phenyl)-1H-indole-5-carbonitrile] | 530
20 | Cc1cc(-n2ccc3cc(CN(C)CC(O)c4ccc5c(c4C)COC5=O)ccc32)ncc1C#N (single isomer, unassigned) [Example 33-I, 6-(5-(((2-hydroxy-2-(4-methyl-1-oxo-1,3-dihydroisobenzofuran-5-yl)ethyl)(methyl)amino)methyl)-1H-indol-1-yl)-4-methylnicotinonitrile] | 3300

— patent US10723723B2, “Substituted bicycle heterocyclic derivatives useful as ROMK channel inhibitors” (BRISTOL-MYERS SQUIBB COMPANY, priority 2016, dated 2020)
